Results: patent publication US20200299612A1, “HIGH PERFORMING, HIGH IMPACT BLOOM ACCORD” (International Flavors & Fragrances Inc., priority 2016, published 2020)

Assays:
Assay in all cases: Antibacterial activity
e. hirae = system: e. hirae
Description: (§1) The fragrance accords can contain antibacterial ingredients described above. See U.S. Pat. No. 6,495,512 for a list of suitable antibacterial ingredients.

s. aureos = system: s. aureos
Description: as §1

e. coli = system: e. coli
Description: as §1

Measured: antibacterial activity

C=CC(C)(O)CCC=C(C)C (stereo not drawn) [3,7-dimethylocta-1,6-dien-3-ol]
high antibacterial activity: all assays above

COc1ccc(C)cc1 [1-methoxy-4-methylbenzene]
high antibacterial activity: all assays above
